How the values were obtained:
[1] = system: atrophic or neovascular AMD; details: group with the highest dietary intake of either carotenoid; cited from earlier work
MMP2 = details: mice with the highest survival rates; cited from earlier work
VEGF = details: mice with the highest survival rates; cited from earlier work
bFGF = details: mice with the highest survival rates; cited from earlier work
sarcoma S-180 cells = details: high dose; cited from earlier work
[2] = system: thyroid nodule localized to the right side of the thyroid gland; assay: Case 2: subject with thyroid nodule given the preferred embodiment; assay type: in vivo; details: increasing doses, before the preferred embodiment
Description: […]

Q: For `CC1=C[C@H](O)CC(C)(C)[C@H]1/C=C/C(C)=C/C=C/C(C)=C/C=C/C=C(C)/C=C/C=C(C)/C=C/C1=C(C)C[C@@H](O)CC1(C)C` [lutein], which “reduction in the risk of developing atrophic or neovascular AMD” value [1] is on record?
A: forty

Q: For `O=C1O[C@H]([C@@H](O)CO)C(O)=C1O` [vitamin C, ascorbic acid], which “inhibition of expression of MMP2 gene” value (MMP2) is on record?
A: 4 times

Q: What about the “inhibition of expression of VEGF gene” value (VEGF) of the same compound?
A: 7 times

Q: And the “inhibition of expression of bFGF gene” value (bFGF)?
A: 0.3 times

Q: And the “increase of survival rate as compared to control models” value (sarcoma S-180 cells)?
A: 20%

Q: Which “effect on growth of the thyroid nodule” value [2] does the source give for `N[C@@H](Cc1cc(I)c(Oc2cc(I)c(O)c(I)c2)c(I)c1)C(=O)O` [levothyroxine sodium] here?
A: did not seem to inhibit the growth of the nodule

Q: For `CC1=C(/C=C/C(C)=C/C=C/C(C)=C/C=C/C=C(C)/C=C/C=C(C)/C=C/C2=C(C)C[C@@H](O)CC2(C)C)C(C)(C)C[C@H](O)C1` [zeaxanthin], which “reduction in the risk of developing atrophic or neovascular AMD” value [1] is on record?
A: forty

Reference: patent publication US8652518B2, “Compositions and methods for the prevention and treatment of diseases or conditions associated with oxidative stress, inflammation, and metabolic dysregulation” (priority 2012, dated 2014)
